Several values for one entry are separate records, joined by “and”; a condition that tells them apart may be missing. Equal values may be shown once. Read-outs that look alike come from different tables or passages of the source.
Key:
[1] = system: metrazol lethality (pentylenetetrazol); assay: metrazol lethality (MTZ), anticonvulsant activity; format: in vivo, male mice; settings: for MTZ, % protected at indicated dose: @ 60 mg/kg i.p.; for ED50: Mus musculus, ip
Description: Anticonvulsant activity is also measured using the metrazol lethality (MTZ). In this procedure groups of male mice are utilized. Test drugs are prepared using distilled water and, if insoluble, a suitable surfactant is added. The route of administration is i.p., but all administration are in volumes proportional to 10 cc/kg.
For a time response, 25 animals (5/group) are administered drug i.p. at 15, 30, 60 and 90 minutes prior to Metrazol treatment. Control animals (2/group) receive vehicle. Metrazol (pentylenetetrazol) is prepared at a concentration of 225 mg/10 ml in distilled water. Metrazol is administered s.c. at 225 mg/kg in distilled water. Those animals alive 15 minutes after Metrazol injection are considered protected. The time period with the greatest percent protected is said to be that of peak drug activity.
A dose range is run in the same manner as a time response except that 50 animals (10/group) are tested at the peak time of drug activity. One group receives vehicle. An ED50 is calculated by means of linear regression.

[2] = system: supramaximal electroshock (extensor tonus); assay: supramaximal electroshock (SES) assay, anticonvulsant activity; format: in vivo, male mouse; settings: for SES, % protection (normalized percent inhibition) at indicated dose: @ 60 mg/kg i.p.; for ED50 SES: i.p.; for ED50 SES / ED50: 206 volts rms for 300 msec; for ED50: Mus musculus, ip
Description: The compounds of the invention are also useful as anticonvulsants due to their anticonvulsant activity in mammals. Anticonvulsant activity is measured in the male mouse using the supramaximal electroshock (SES) assay described in Arch. Int. Pharmacodyn. 92: 97-107, 1952. In this procedure groups of animals are used. Drugs are prepared using distilled water and, if insoluble, a surfactant is added. Control animals receive vehicle. Drugs are routinely administered intraperitoneally (i.p.). The dosage volume is 10 ml/kg. A primary screen is given a 30 minute pretreat. The animal's eyes are placed across the output terminals of an A.C. shocker that delivers 206 volts rms for 300 msec. Electrode paste coats the animals eyes at the point of contact with the terminals. […] Protection is expressed as normalized percent inhibition relative to vehicle control.
A time response is carried out using six animals/group. Animals are tested at 30, 60 and 120 minutes postdrug. Additional time periods are tested if indicated by previous tests. When the peak activity time has been determined, a dose response is initiated using 10 animals/group at that time period. The ED50 and 95% confidence interval are calculated by computer probit analysis.

apomorphine climbing = apomorphine climbing mice assay (antipsychotic activity); format: in vivo, mice (CK-1 male); settings: for % decrease in climbing score at indicated dose: @ 10 mg/kg, i.p.; for ED50: Mus musculus, ip, read-out: ED50, antipsychotic activity (climbing)
Description: Antipsychotic activity is determined in the climbing mice assay by methods similar to those described by P. Protais, et al., Psychopharmacol., 50, 1 (1976) and B. Costall, Eur. J. Pharmacol., 50, 39 (1978).
The subject CK-1 male mice (23-27 grams) are group-housed under standard laboratory conditions. The mice are individually placed in wire mesh stick cages (4"×4" by 10") and are allowed one hour for adaptation and exploration of the new environment. Then apomorphine is injected subcutaneously at 1.5 mg/kg, a dose causing climbing in all subjects for 30 minutes. Compounds to be tested for antipsychotic activity are injected intraperitoneally (i.p.) 30 minutes prior to the apomorphine challenge at a screening dose of 10 mg/kg.
For evaluation of climbing, 3 readings are taken at 10, 20, and 30 minutes after apomorphine administration according to the following scale:
4 paws on bottom (no climbing)
2 paws on the wall (rearing)
4 paws on the wall (full climb)
Mice consistently climbing before the injection of apomorphine will be discarded.
With full-developed apomorphine climbing, the animals are hanging onto the cage walls, rather motionless, over longer periods of time. By contrast, climbs due to mere motor stimulation usually only last a few seconds.
The climbing scores are individually totaled (maximal score: 6 per mouse over 3 readings) and the total score of the control group (vehicle intraperitoneally-apomorphine subcutaneously) is set to 100%. ED50 values with 95% confidence limits, calculated by a Linear Regression Analysis of some of the instant 3-(piperidinyl)-1H-indazoles and 3-(pyrrolidinyl)-1H-indazoles as well as standard antipsychotics, are presented in Table 1.

[3] = system: phenyl-p-quinone writhing; assay: phenyl-p-quinone writhing assay (analgesia); format: in vivo, mice; settings: for ED50: Mus musculus, sc, read-out: ED50, inhibition of writhing; for inhibition of writhing at indicated dose: @ 20 mg/kg, s.c.
[4] = system: tetrabenazine induced ptosis; assay: tetrabenazine induced ptosis assay (antidepressant activity); format: in vivo, mice; settings: Mus musculus, ip; estimated 50% inhibition; read-out: ED50, inhibition of ptosis
From the text: The 3-(piperidinyl)- and 3-(pyrrolidinyl)-1H-indazoles of the present invention are also useful as antidepressants by virtue of their ability to elicit an antidepressant response in mammals. […] Thus, for example,. the intraperitoneal (i.p.) dose effecting an estimated 50% inhibition of ptosis (ED50) in mice produced in this assay is as follows: […]

[5] = 30 minutes prior to apomorphine 1.5 mg/kg s.c.

CN(C)C(=O)N1CCC(c2nn(-c3ccc(C(F)(F)F)cc3)c3ccccc23)CC1 [Compound 16]
MTZ, % protected at indicated dose [1]: 20% | SES, % protection (normalized percent inhibition) at indicated dose [2]: 20%

1-(2-Phenylethyl)-3-(1-methyl-4-piperidinyl)-1H-indazole hydrobromide [Example 14]
ED50 SES [2]: 34.9 mg/kg

CN1CCC(c2nn(C(=O)OCC(Cl)(Cl)Cl)c3ccccc23)CC1.Cl [3-(1-Methyl-4-piperidinyl)-1-trichloroethoxycarbonyl-1H-indazole hydrochloride]
% decrease in climbing score at indicated dose (apomorphine climbing): 46%

CNC(=O)N1CCC(c2nn(-c3ccc(F)cc3)c3ccccc23)CC1 [Compound 9]
ED50 ([1]; Metrazol 225 mg/kg s.c.): 45.5 mg/kg | ED50 [2]: 31.7 mg/kg

CN1CCC(c2n[nH]c3ccccc23)CC1 [3-(1-methyl-4-piperidinyl)-1H--indazole, 3-(1-Methyl-4-piperidinyl)-1H-indazole]
ED50 [3]: 0.26 mg/kg | ED50 (apomorphine climbing): 4.5 mg/kg

CC(=O)N1CCC(c2nn(-c3ccccc3)c3cc(Br)ccc23)CC1 [Compound 8, 1-Acetyl-4-(6-bromo-1-phenyl-1H-indazol-3-yl)piperidine]
MTZ, % protected at indicated dose [1]: 0% | SES, % protection (normalized percent inhibition) at indicated dose [2]: 33%

CN(C)CCCn1nc(C2CCN(C)CC2)c2ccccc21.O=C(O)/C=C/C(=O)O.O=C(O)/C=C/C(=O)O [1-[3-(Dimethylamino)propyl]-3-(1-methyl-4-piperidinyl)-1H-indazole difumarate]
inhibition of writhing at indicated dose [3]: 15%

1-(6-Fluoro-1,2-benzisoxazole-3-propyl)-3-(1-methyl-4-piperidinyl)-1H-indazole maleate [Example 11]
ED50 MTZ ([1]; i.p., Metrazol 225 mg/kg s.c.): 79.6 mg/kg

CN1CCC(c2nn(-c3cccc(F)c3)c3ccccc23)CC1.Cl [1-(3-Fluorophenyl)-3-(1-methyl-4-piperidinyl)-1H-indazole hydrochloride]
ED50 [4]: 5 mg/kg

CN1CCC(c2nn(C(=O)c3ccccc3)c3ccccc23)CC1.Cl [1-Benzoyl-3-(1-methyl-4-piperidinyl)-1H-indazole hydrochloride]
ED50 ([3]; approximately 50% inhibition): 0.85 mg/kg | ED50 (apomorphine climbing; [5]): 6.5 mg/kg

CN1CCC(c2nn(-c3ccccc3N)c3ccccc23)CC1.O=C(O)/C=C/C(=O)O [1-(2-Aminophenyl)-3-(1-methyl-4-piperidinyl)-1H-indazole fumarate]
ED50 [4]: 19.2 mg/kg

CC(C)=CCN1CCC2(C)c3cc(O)ccc3CC1C2C (centres unmarked) [pentazocine, reference compound]
ED50 [3]: 1.3 mg/kg

CN1CCC(c2nn(C(=O)c3ccccc3)c3cc(F)ccc23)CC1.O=C(O)/C=C/C(=O)O [1-Benzoyl-6-fluoro-3-(1-methyl-4-piperidinyl)-1H-indazole fumarate]
ED50 ([3]; approximately 50% inhibition): 0.17 mg/kg | ED50 (apomorphine climbing; [5]): 1.8 mg/kg

O=CN1CCC(c2nn(-c3ccc(C(F)(F)F)cc3)c3ccccc23)CC1 [Compound 12]
ED50 ([1]; Metrazol 225 mg/kg s.c.): 60.9 mg/kg | ED50 [2]: 27.2 mg/kg

CN(C)CCC=C1c2ccccc2CCc2ccccc21 [amitriptyline, reference compound]
ED50 [4]: 1.5 mg/kg

CN1CCC(c2nn(-c3ccccc3Cl)c3ccccc23)CC1.O=C(O)/C=C/C(=O)O [1-(2-Chlorophenyl)-3-(1-methyl-4-piperidinyl)-1H-indazole fumarate]
ED50 [4]: 5.3 mg/kg

O=C(Nc1ccccc1)N1CCC(c2nn(-c3ccccc3)c3cc(F)ccc23)CC1 [Compound 2, N-Phenyl-4-(6-fluoro-1-phenyl-1H-indazol-3-yl)piperidine-1-carboxamide]
MTZ, % protected at indicated dose [1]: 20% | SES, % protection (normalized percent inhibition) at indicated dose [2]: 0%

CCC(=O)O[C@](Cc1ccccc1)(c1ccccc1)[C@H](C)CN(C)C [propoxyphene, reference compound]
ED50 [3]: 3.9 mg/kg

Fc1ccc(C(CCCN2CCC(c3n[nH]c4ccccc34)CC2)c2ccc(F)cc2)cc1 [3-[1-[4,4-bis(4-Fluorophenyl)butyl]-4-piperidinyl]-1H-indazole]
inhibition of writhing at indicated dose [3]: 31% | ED50 (apomorphine climbing; [5]): 7.4 mg/kg

NC(=O)N1CCC(c2nn(-c3ccccc3)c3cc(Cl)ccc23)CC1 [Compound 15, 4-(6-Chloro-1-phenyl-1H-indazol-3-yl)piperidine-1-carboxamide]
ED50 ([1]; Metrazol 225 mg/kg s.c.): 31.2 mg/kg | ED50 [2]: 48.1 mg/kg

O=CN1CCC(c2nn(-c3ccc(F)cc3)c3ccccc23)CC1 [Compound 13]
MTZ, % protected at indicated dose [1]: 40% | ED50 [2]: 24.7 mg/kg

Br.NC(=O)N1CCC(c2nn(-c3ccc(C(F)(F)F)cc3)c3ccccc23)CC1 [Compound 3, 4-[1-[4-(Trifluoromethyl)phenyl]-1H-indazol-3-yl]-1-piperidine carboxamide hydrobromide]
ED50 ([1]; Metrazol 225 mg/kg s.c.): 27.4 mg/kg | ED50 [2]: 10.9 mg/kg

1-(4-Nitrophenyl)-3-(1-methyl-4-piperidinyl)-1H-indazole hydrochloride [Example 7]
SES, % protection (normalized percent inhibition) at indicated dose [2]: 0%

CNC(=O)N1CCC(c2nn(-c3ccccc3)c3cc(F)ccc23)CC1 [Compound 4, N-Methyl-4-(6-fluoro-1-phenyl-1H-indazol-3-yl)piperidine-1-carboxamide]
MTZ, % protected at indicated dose [1]: 0% | ED50 [2]: 64.9 mg/kg

O=C(CCCN1CCC(O)(c2ccc(Cl)cc2)CC1)c1ccc(F)cc1 [haloperidol, reference compound]
ED50 (apomorphine climbing): 0.11 mg/kg

CNC(=O)N1CCC(c2nn(-c3ccc(C(F)(F)F)cc3)c3ccccc23)CC1 [Compound 6]
MTZ, % protected at indicated dose [1]: 20% | ED50 [2]: 44.9 mg/kg

Br.CN1CCC(c2nn(CC3CC3)c3ccccc23)CC1 [1-Cyclopropylmethyl-3-(1-methyl-4-piperidinyl)-1H-indazole hydrobromide]
ED50 ([3]; approximately 50% inhibition): 1.1 mg/kg | % decrease in climbing score at indicated dose (apomorphine climbing): 36%

1-Hydroxymethyl-3-(1-methyl-4-piperidinyl)-1H-indazole [Example 10]
ED50 SES [2]: 35.3 mg/kg

CN1CCC(c2nn(-c3ccc(C(F)(F)F)cc3)c3ccccc23)CC1.Cl [3-(1-Methyl-4-piperidinyl)-1-[4-(trifluoromethyl)phenyl]-1H-indazole hydrochloride]
ED50 ([3]; approximately 50% inhibition): 9.8 mg/kg

Fc1ccc2c(C3CCN(C(=S)Nc4ccccc4)CC3)nn(-c3ccccc3)c2c1 [Compound 5, N-Phenyl-4-(6-fluoro-1-phenyl-1H-indazol-3-yl)piperidine-1-carbothioamide]
MTZ, % protected at indicated dose [1]: 17% | SES, % protection (normalized percent inhibition) at indicated dose [2]: 0%

CC(=O)n1nc(C2CCN(C)CC2)c2ccccc21.Cl [1-Acetyl-3-(1-methyl-4-piperidinyl)-1H-indazole hydrochloride]
ED50 [3]: 0.71 mg/kg | ED50 (apomorphine climbing): 5.4 mg/kg

Br.CN1CCC(c2nn(Cc3ccccc3)c3ccccc23)CC1 [1-Phenylmethyl-3-(1-methyl-4-piperidinyl)-1H-indazole hydrobromide]
inhibition of writhing at indicated dose ([3]; hydrobromide): 75% and 96%

CNC(=O)N1CCC(c2nn(-c3ccccc3F)c3ccccc23)CC1 [Compound 1]
ED50 ([1]; Metrazol 225 mg/kg s.c.): 49 mg/kg | ED50 [2]: 37 mg/kg

Br.CCn1nc(C2CCN(C)CC2)c2ccccc21 [1-Ethyl-3-(1-methyl-4-piperidinyl)-1H-indazole hydrobromide]
ED50 [3]: 0.65 mg/kg | % decrease in climbing score at indicated dose (apomorphine climbing): 41%

Reference: patent US4853470A, “3-(piperidinyl)- and 3-(pyrrolidinyl)-1H-indazoles” (Hoechst-Roussel Pharmaceuticals, Inc., priority 1988, dated 1989)
